The target in this experiment is T1, AKR1C3 (aldo-keto reductase 1C3) (Homo sapiens, UniProt P42330).
T1 construct: human recombinant enzyme expressed in E. coli (Novus NBC1-21051)
As to the kind of experiment: Km by real-time NADPH fluorescence ([…]); GC-QToF gave Km […]. The experiment is classed as biochemical.

This is an account of results in paper PMC7698016 (Metabolites, 2020).

SMILES strings stand for the structures.

T1 sequence (P42330 whole entry): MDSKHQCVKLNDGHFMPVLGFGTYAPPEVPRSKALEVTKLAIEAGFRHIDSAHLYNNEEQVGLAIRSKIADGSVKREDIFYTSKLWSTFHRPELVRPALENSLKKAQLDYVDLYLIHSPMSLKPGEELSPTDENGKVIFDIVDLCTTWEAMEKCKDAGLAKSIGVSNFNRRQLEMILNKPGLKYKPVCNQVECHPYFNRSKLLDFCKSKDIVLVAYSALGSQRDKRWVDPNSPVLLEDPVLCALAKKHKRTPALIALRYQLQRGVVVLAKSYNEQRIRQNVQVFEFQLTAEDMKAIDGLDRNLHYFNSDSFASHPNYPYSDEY

On to `C[C@]12CC[C@@H](O)C[C@H]1CC[C@@H]1[C@@H]2CC[C@]2(C)C(=O)CC[C@@H]12` [D, 3α-hydroxy-5β-androstan-17-one], for which the Km amounted to 9.7 µM.
